Laboratory results from ChEMBL document CHEMBL1201862, “PubChem BioAssay data set” (2004).
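Compound exposure: 48 hours, 5 concentrations, 96-well plates. GI50 marks 50% less growth.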 Activity calls are given as the source filed them. No stated cut-off is given here; in the data, active = GI50 up to about 1.1 µM and inactive = higher.

Assays:
Experiment in all cases: NCI tumour cell line growth inhibition, 48 h
KM-20L2 = system: KM-20L2
SK-MEL-5 = system: SK-MEL-5
HT-29 = system: HT-29
M14 = system: M14
KM12 = system: KM12
OVCAR-3 = system: OVCAR-3
NCI-H460 = system: NCI-H460
A549 = system: A549
TK-10 = system: TK-10
IGROV-1 = system: IGROV-1
EKVX = system: EKVX
SW-620 = system: SW-620
SK-OV-3 = system: SK-OV-3
K562 = system: K562
SF-539 = system: SF-539
SF-268 = system: SF-268
SNB-19 = system: SNB-19
LXFL 529 = system: LXFL 529
HOP-92 = system: HOP-92
HCT-15 = system: HCT-15
SF-295 = system: SF-295
COLO 205 = system: COLO 205
SK-MEL-2 = system: SK-MEL-2
M19-MEL = system: M19-MEL
DMS-114 = system: DMS-114
CAKI-1 = system: CAKI-1
A498 = system: A498
SN12C = system: SN12C
SK-MEL-28 = system: SK-MEL-28
CCRF-CEM = system: CCRF-CEM
DLD-1 = system: DLD-1
RPMI-8226 = system: RPMI-8226
HCT-116 = system: HCT-116
786-0 = system: 786-0
OVCAR-4 = system: OVCAR-4
UO-31 = system: UO-31
HCC 2998 = system: HCC 2998
NCI-H522 = system: NCI-H522
ACHN = system: ACHN
RXF 393 = system: RXF 393
SNB-78 = system: SNB-78
DMS-273 = system: DMS-273
UACC-62 = system: UACC-62
MOLT-4 = system: MOLT-4
HOP-18 = system: HOP-18
NCI-H226 = system: NCI-H226
OVCAR-5 = system: OVCAR-5
UACC-257 = system: UACC-257
OVCAR-8 = system: OVCAR-8
HOP-62 = system: HOP-62
SNB-75 = system: SNB-75
LOX IMVI = system: LOX IMVI
U-251 = system: U-251
Malme-3M = system: Malme-3M
NCI-H23 = system: NCI-H23
SR = system: SR
HL-60 = system: HL-60
XF498 = system: XF498

Measured: GI50

NS(=O)(=O)c1ccc(NC2=CC(=O)C(=O)c3ccccc32)cc1
> 100 µM: HCT-15
inactive: KM-20L2 > 100 µM | SK-MEL-5 > 100 µM | HT-29 > 100 µM | M14 > 100 µM | KM12 > 100 µM | OVCAR-3 > 100 µM | NCI-H460 > 100 µM | A549 > 100 µM | TK-10 > 100 µM | IGROV-1 > 100 µM | EKVX > 100 µM | SW-620 > 100 µM | SK-OV-3 > 100 µM | K562 > 100 µM | SF-539 > 100 µM | SF-268 > 100 µM | SNB-19 > 100 µM | LXFL 529 > 100 µM | HOP-92 > 100 µM | SF-295 > 100 µM | COLO 205 > 100 µM | SK-MEL-2 > 100 µM | M19-MEL > 100 µM | DMS-114 43.2 µM | CAKI-1 > 100 µM | A498 > 100 µM | SN12C > 100 µM | SK-MEL-28 > 100 µM | CCRF-CEM > 100 µM | DLD-1 > 100 µM | RPMI-8226 > 100 µM | HCT-116 76.4 µM | 786-0 > 100 µM | OVCAR-4 > 100 µM | UO-31 > 100 µM | HCC 2998 > 100 µM | NCI-H522 > 100 µM | ACHN > 100 µM | RXF 393 > 100 µM | SNB-78 > 100 µM | DMS-273 > 100 µM | UACC-62 > 100 µM | MOLT-4 72.1 µM | HOP-18 > 100 µM | NCI-H226 > 100 µM | OVCAR-5 > 100 µM | UACC-257 > 100 µM | OVCAR-8 > 100 µM | HOP-62 > 100 µM | SNB-75 > 100 µM | LOX IMVI > 100 µM | U-251 > 100 µM | Malme-3M > 100 µM | NCI-H23 > 100 µM | SR > 100 µM | HL-60 > 100 µM

CCC(=O)C(C)C1=Nc2nnc(CCCCCCCc3nnc4n3C(=O)C(C(C)C(=O)CC)=N4)n2C1=O (stereo unspecified)
inactive: KM-20L2 > 100 µM | SK-MEL-5 > 100 µM | HT-29 > 100 µM | M14 > 100 µM | KM12 > 100 µM | OVCAR-3 > 100 µM | NCI-H460 > 100 µM | A549 > 100 µM | TK-10 > 100 µM | IGROV-1 > 100 µM | EKVX > 100 µM | SW-620 > 100 µM | SK-OV-3 > 100 µM | K562 > 100 µM | SF-539 > 100 µM | SF-268 > 100 µM | SNB-19 > 100 µM | LXFL 529 > 100 µM | HOP-92 > 100 µM | XF498 > 100 µM | SF-295 > 100 µM | COLO 205 > 100 µM | M19-MEL > 100 µM | DMS-114 > 100 µM | CAKI-1 > 100 µM | A498 > 100 µM | SN12C > 100 µM | SK-MEL-28 > 100 µM | CCRF-CEM > 100 µM | RPMI-8226 > 100 µM | HCT-116 > 100 µM | 786-0 > 100 µM | UO-31 > 100 µM | HCC 2998 > 100 µM | NCI-H522 > 100 µM | ACHN > 100 µM | RXF 393 > 100 µM | UACC-62 > 100 µM | MOLT-4 > 100 µM | HOP-18 > 100 µM | NCI-H226 > 100 µM | OVCAR-5 > 100 µM | UACC-257 > 100 µM | OVCAR-8 > 100 µM | HOP-62 > 100 µM | SNB-75 > 100 µM | LOX IMVI > 100 µM | U-251 > 100 µM | Malme-3M > 100 µM | NCI-H23 > 100 µM | SR 21.6 µM | HL-60 > 100 µM
> 100 µM: HCT-15

CC(=O)/C(=N\O)C(=O)Nc1ccc(Cl)cc1Cl
> 100 µM: HCT-15
inactive: KM-20L2 > 100 µM | SK-MEL-5 > 100 µM | HT-29 > 100 µM | M14 > 100 µM | KM12 > 100 µM | OVCAR-3 > 100 µM | NCI-H460 > 100 µM | A549 > 100 µM | TK-10 > 100 µM | IGROV-1 > 100 µM | EKVX > 100 µM | SW-620 > 100 µM | SK-OV-3 > 100 µM | K562 > 100 µM | SF-539 > 100 µM | SF-268 > 100 µM | SNB-19 > 100 µM | LXFL 529 > 100 µM | HOP-92 > 100 µM | SF-295 > 100 µM | COLO 205 > 100 µM | SK-MEL-2 > 100 µM | M19-MEL > 100 µM | DMS-114 > 100 µM | CAKI-1 > 100 µM | A498 > 100 µM | SN12C > 100 µM | SK-MEL-28 > 100 µM | CCRF-CEM 19.1 µM | DLD-1 > 100 µM | RPMI-8226 > 100 µM | HCT-116 > 100 µM | 786-0 > 100 µM | OVCAR-4 > 100 µM | UO-31 > 100 µM | HCC 2998 > 100 µM | NCI-H522 97.9 µM | ACHN > 100 µM | RXF 393 > 100 µM | SNB-78 > 100 µM | DMS-273 > 100 µM | UACC-62 > 100 µM | MOLT-4 > 100 µM | HOP-18 43.1 µM | NCI-H226 > 100 µM | OVCAR-5 > 100 µM | UACC-257 > 100 µM | OVCAR-8 > 100 µM | HOP-62 > 100 µM | SNB-75 > 100 µM | LOX IMVI > 100 µM | U-251 > 100 µM | Malme-3M > 100 µM | NCI-H23 > 100 µM | HL-60 > 100 µM

C[C@H](NS(=O)(=O)c1ccc(NC(=O)c2ccccc2)cc1)C(=O)O
inactive: KM-20L2 > 100 µM | SK-MEL-5 > 100 µM | HT-29 > 100 µM | M14 > 100 µM | KM12 > 100 µM | OVCAR-3 > 100 µM | NCI-H460 > 100 µM | A549 > 100 µM | TK-10 > 100 µM | IGROV-1 > 100 µM | EKVX > 100 µM | SW-620 > 100 µM | SK-OV-3 > 100 µM | K562 > 100 µM | SF-539 > 100 µM | SF-268 > 100 µM | SNB-19 > 100 µM | LXFL 529 > 100 µM | HOP-92 > 100 µM | XF498 > 100 µM | SF-295 > 100 µM | COLO 205 > 100 µM | SK-MEL-2 > 100 µM | M19-MEL > 100 µM | CAKI-1 > 100 µM | A498 > 100 µM | SN12C > 100 µM | SK-MEL-28 > 100 µM | CCRF-CEM > 100 µM | DLD-1 > 100 µM | RPMI-8226 > 100 µM | 786-0 > 100 µM | OVCAR-4 > 100 µM | UO-31 > 100 µM | HCC 2998 > 100 µM | NCI-H522 > 100 µM | ACHN > 100 µM | RXF 393 > 100 µM | DMS-273 > 100 µM | UACC-62 > 100 µM | MOLT-4 > 100 µM | HOP-18 > 100 µM | OVCAR-5 > 100 µM | UACC-257 > 100 µM | OVCAR-8 > 100 µM | SNB-75 > 100 µM | LOX IMVI > 100 µM | U-251 > 100 µM | Malme-3M > 100 µM | NCI-H23 > 100 µM | HL-60 > 100 µM
> 100 µM: HCT-15

N#CC(C(=O)Nc1ccccc1)C1=C(Cl)C(=O)c2ccccc2C1=O (stereo unspecified)
inactive: KM-20L2 23 µM | SK-MEL-5 16.1 µM | HT-29 26 µM | M14 16.5 µM | KM12 21.5 µM | OVCAR-3 15.6 µM | NCI-H460 33.9 µM | A549 19.6 µM | TK-10 21.7 µM | IGROV-1 17.9 µM | EKVX 17.5 µM | SW-620 20.6 µM | SK-OV-3 23.9 µM | K562 13.6 µM | SF-539 15.2 µM | SF-268 15.7 µM | SNB-19 17.7 µM | LXFL 529 19.9 µM | HOP-92 14.3 µM | XF498 16.7 µM | SF-295 17.9 µM | COLO 205 17.5 µM | SK-MEL-2 16.3 µM | M19-MEL 7.66 µM | DMS-114 17.8 µM | CAKI-1 18 µM | A498 47.1 µM | SN12C 15.7 µM | SK-MEL-28 17.1 µM | CCRF-CEM 7.59 µM | DLD-1 17.1 µM | HCT-116 14.2 µM | 786-0 14.6 µM | OVCAR-4 16.9 µM | UO-31 13.9 µM | HCC 2998 18.1 µM | NCI-H522 15.5 µM | RXF 393 17.6 µM | SNB-78 20.1 µM | UACC-62 16.8 µM | HOP-18 10.7 µM | NCI-H226 17 µM | OVCAR-5 17.6 µM | UACC-257 2.05 µM | OVCAR-8 18.9 µM | HOP-62 17.9 µM | SNB-75 > 10 µM | LOX IMVI 15.7 µM | U-251 27.2 µM | Malme-3M 13.8 µM | NCI-H23 18.5 µM | HL-60 4.23 µM
18.5 µM: HCT-15
